Laboratory results as given in patent publication EP3046573B1, “AMYLIN ANALOGUES” (Zealand Pharma A/S, priority 2013, dated 2015).
Where two headings read alike, the source gives them in different places. Numbered stars: 1 amine (or outer) side, 2 acyl side, 3 side chain; on linkers, the order of the positions; unused ones are H or OH. Bridge positions count the residues as written; N and C are the ends. Square brackets hold non-standard residues; d marks the D form. Peptide text beside a SMILES is read from it. * marks the point of attachment. C20 diacid = O=C(O)CCCCCCCCCCCCCCCCCCC(=O)*; γGlu = O=C(O)[C@H](CCC(=O)[*:2])N[*:1]; NMeI = CC[C@H](C)[C@H](NC)C(=O)O; Orn = NCCC[C@H](N)C(=O)O; Dab = NCC[C@H](N)C(=O)O; Dap = NC[C@H](N)C(=O)O; Sar = CNCC(=O)O

Columns and labels:
[1] = Solubility assessment (turbidity absorbance at 325 nm); assay type: physicochemical; conditions: stock 2 mg/ml diluted 1:1, ambient temperature (typically 25°C), n=1; for Solubility, Acetate buffer pH 4: 100 mM acetate buffer pH 4.0; for Solubility, Acetate buffer pH 5: 100 mM acetate buffer pH 5.0; for Solubility, Histidine buffer pH 6: 100 mM histidine buffer pH 6.0; for Solubility, Histidine buffer pH 7: 100 mM histidine buffer pH 7.0; for Solubility, Phosphate buffer pH 6: 100 mM phosphate buffer pH 6.0; for Solubility, Phosphate buffer pH 7: 100 mM phosphate buffer pH 7.0; for Solubility, Phosphate buffer pH 7.5: 100 mM phosphate buffer pH7.5
In short: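 Read-out: turbidity as absorbance at 325 nm (280 nm also read), single samples, ambient temperature of typically 25°C. Samples were a 1:1 mix of 2 mg/ml stock (water, pH 2.5) with 100 mM acetate, histidine or phosphate buffers spanning pH 4.0–7.5. Cut-off: A325 ≤ 0.02 indicates ≥ 1 mg/ml.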

[2] = target: T1, human calcitonin receptor (hCTR2) (Homo sapiens, UniProt P30988); experiment: hCTR2 assay: induction of cAMP (AlphaScreen cAMP Assay kit) in COS7 cells expressing hCTR2; assay type: cell-based
T1 construct: expressed in transfected cells
T1 sequence (P30988 25-474): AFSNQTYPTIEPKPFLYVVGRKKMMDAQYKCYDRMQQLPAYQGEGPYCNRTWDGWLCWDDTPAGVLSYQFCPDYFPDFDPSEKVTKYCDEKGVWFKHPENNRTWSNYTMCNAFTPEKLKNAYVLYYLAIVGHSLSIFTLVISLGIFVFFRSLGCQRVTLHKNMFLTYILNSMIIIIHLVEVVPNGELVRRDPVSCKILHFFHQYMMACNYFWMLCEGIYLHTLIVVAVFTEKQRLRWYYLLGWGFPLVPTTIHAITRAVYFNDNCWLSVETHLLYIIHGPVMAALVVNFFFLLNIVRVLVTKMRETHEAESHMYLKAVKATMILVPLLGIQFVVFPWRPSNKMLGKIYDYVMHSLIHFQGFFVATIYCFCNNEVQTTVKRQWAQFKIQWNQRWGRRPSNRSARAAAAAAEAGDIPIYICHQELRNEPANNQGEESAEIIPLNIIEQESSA
In short: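 Cells were seeded one day ahead, washed, then exposed to rising peptide concentrations for 15 min at 37° C in the presence of 100 µM IBMX. After lysis for 10 min at room temperature, cAMP was quantified by AlphaScreen and EC50 values derived by 4PL fitting.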

[3] = cAMP induction in COS7 cells expressing hCTR2, average of a minimum of 3 determinations, read-out: hCTR2 EC50

Solubility, Acetate buffer pH 4 [1]	Solubility, Acetate buffer pH 5 [1]	Solubility, Histidine buffer pH 6 [1]	Solubility, Histidine buffer pH 7 [1]	Solubility, Phosphate buffer pH 6 [1]	Solubility, Phosphate buffer pH 7 [1]	Solubility, Phosphate buffer pH 7.5 [1]	EC50 [2, 3]	Compound	EC50 [2]
SS (SS indicates solubility ≥ 1mg/ml)	II (II indicates solubility ≤ 1 mg/ml)	SS (SS indicates solubility ≥ 1mg/ml)	SS (SS indicates solubility ≥ 1mg/ml)	SS (SS indicates solubility ≥ 1mg/ml)	SS (SS indicates solubility ≥ 1mg/ml)	SS (SS indicates solubility ≥ 1mg/ml)	0.4 nM	CC[C@H](C)[C@@H](C(=O)N[C@@H](CC(C)C)C(=O)N[C@@H](CO)C(=O)N[C@@H](CO)C(=O)N[C@H](C(=O)N[C@@H](CC(N)=O)C(=O)N[C@H](C(=O)NCC(=O)N[C@@H](CO)C(=O)N[C@@H](CC(N)=O)C(=O)N[C@H](C(=O)N1CCC[C@H]1C(N)=O)[C@@H](C)O)C(C)C)[C@@H](C)O)N(C)C(=O)CN(C)C(=O)[C@H](Cc1ccccc1)NC(=O)[C@H](CC(N)=O)NC(=O)[C@H](CC(N)=O)NC(=O)[C@H](CO)NC(=O)[C@H](CO)NC(=O)[C@H](Cc1c[nH]cn1)NC(=O)[C@H](Cc1c[nH]cn1)NC(=O)[C@H](CC(C)C)NC(=O)[C@H](Cc1ccccc1)NC(=O)[C@H](CCC(=O)O)NC(=O)[C@H](C)NC(=O)[C@H](CC(C)C)NC(=O)[C@H](CCCNC(=N)N)NC(=O)[C@H](CCC(N)=O)NC(=O)[C@@H](NC(=O)[C@H](C)NC(=O)[C@@H]1CSSC[C@H](NC(=O)[C@H](CCN)NC(=O)CC[C@H](NC(=O)CCCCCCCCCCCCCCCCCCC(=O)O)C(=O)O)C(=O)N[C@@H](CC(N)=O)C(=O)N[C@@H]([C@@H](C)O)C(=O)N[C@@H](C)C(=O)N[C@@H]([C@@H](C)O)C(=O)N1)[C@@H](C)O [Compound 64, [19CD]-isoGlu-Dab-C()NTATC()ATQRLAEFLHHSSNNF-Gly(Me)-Ile(Me)-LSSTNVGSNTP-NH2] ({C20 diacid-γGlu}-[Dab]CNTATCATQRLAEFLHHSSNNF[Sar][NMeI]LSSTNVGSNTP-NH2; disulfide 2-7)	–
SS (SS indicates solubility ≥ 1mg/ml)	SS (SS indicates solubility ≥ 1mg/ml)	SS (SS indicates solubility ≥ 1mg/ml)	SS (SS indicates solubility ≥ 1mg/ml)	SS (SS indicates solubility ≥ 1mg/ml)	SS (SS indicates solubility ≥ 1mg/ml)	SS (SS indicates solubility ≥ 1mg/ml)	0.11 nM	CC[C@H](C)[C@@H](C(=O)N[C@@H](CC(C)C)C(=O)N[C@@H](CO)C(=O)N[C@@H](CO)C(=O)N[C@H](C(=O)N[C@@H](CC(N)=O)C(=O)N[C@H](C(=O)NCC(=O)N[C@@H](CO)C(=O)N[C@@H](CC(N)=O)C(=O)N[C@H](C(=O)N1CCC[C@H]1C(N)=O)[C@@H](C)O)C(C)C)[C@@H](C)O)N(C)C(=O)CN(C)C(=O)[C@H](Cc1ccccc1)NC(=O)[C@H](CC(N)=O)NC(=O)[C@H](CC(N)=O)NC(=O)[C@H](CO)NC(=O)[C@H](CO)NC(=O)[C@H](Cc1c[nH]cn1)NC(=O)[C@H](Cc1c[nH]cn1)NC(=O)[C@H](CC(C)C)NC(=O)[C@H](Cc1ccccc1)NC(=O)[C@H](CCC(=O)O)NC(=O)[C@H](C)NC(=O)[C@H](CC(C)C)NC(=O)[C@H](CCCNC(=N)N)NC(=O)[C@H](CCC(N)=O)NC(=O)[C@@H](NC(=O)[C@H](C)NC(=O)[C@@H]1CSSC[C@H](NC(=O)[C@H](CCCN)NC(=O)CC[C@H](NC(=O)CCCCCCCCCCCCCCCCCCC(=O)O)C(=O)O)C(=O)N[C@@H](CC(N)=O)C(=O)N[C@@H]([C@@H](C)O)C(=O)N[C@@H](C)C(=O)N[C@@H]([C@@H](C)O)C(=O)N1)[C@@H](C)O [Compound 66, [19CD]-isoGlu-Orn-C()NTATC()ATQRLAEFLHHSSNNF-Gly(Me)-Ile(Me)-LSSTNVGSNTP-NH2] ({C20 diacid-γGlu}-[Orn]CNTATCATQRLAEFLHHSSNNF[Sar][NMeI]LSSTNVGSNTP-NH2; disulfide 2-7)	–

Compound	Solubility, Acetate buffer pH 4 [1]	Solubility, Acetate buffer pH 5 [1]	Solubility, Histidine buffer pH 6 [1]	Solubility, Histidine buffer pH 7 [1]	Solubility, Phosphate buffer pH 6 [1]	Solubility, Phosphate buffer pH 7 [1]	Solubility, Phosphate buffer pH 7.5 [1]	EC50 [2, 3]	EC50 [2]
CC[C@H](C)[C@@H](C(=O)N[C@@H](CC(C)C)C(=O)N[C@@H](CO)C(=O)N[C@@H](CO)C(=O)N[C@H](C(=O)N[C@@H](CC(N)=O)C(=O)N[C@H](C(=O)NCC(=O)N[C@@H](CO)C(=O)N[C@@H](CC(N)=O)C(=O)N[C@H](C(=O)N1CCC[C@H]1C(N)=O)[C@@H](C)O)C(C)C)[C@@H](C)O)N(C)C(=O)[C@H](C)NC(=O)CN(C)C(=O)[C@H](Cc1ccccc1)NC(=O)[C@H](CC(N)=O)NC(=O)[C@H](CC(N)=O)NC(=O)[C@H](CO)NC(=O)[C@H](CO)NC(=O)[C@H](Cc1c[nH]cn1)NC(=O)[C@H](Cc1c[nH]cn1)NC(=O)[C@H](CC(C)C)NC(=O)[C@H](Cc1ccccc1)NC(=O)[C@H](CCC(=O)O)NC(=O)[C@H](C)NC(=O)[C@H](CC(C)C)NC(=O)[C@H](CCCNC(=N)N)NC(=O)[C@H](CCC(N)=O)NC(=O)[C@@H](NC(=O)[C@H](C)NC(=O)[C@@H]1CSSC[C@H](NC(=O)[C@H](CN)NC(=O)CC[C@H](NC(=O)CCCCCCCCCCCCCCCCCCC(=O)O)C(=O)O)C(=O)N[C@@H](CC(N)=O)C(=O)N[C@@H]([C@@H](C)O)C(=O)N[C@@H](C)C(=O)N[C@@H]([C@@H](C)O)C(=O)N1)[C@@H](C)O [Compound 67, [19CD]-isoGlu-Dap-C()NTATC()ATQRLAEFLHHSSNNF-Gly(Me)-A-Ile(Me)-LSSTNVGSNTP-NH2] ({C20 diacid-γGlu}-[Dap]CNTATCATQRLAEFLHHSSNNF[Sar]A[NMeI]LSSTNVGSNTP-NH2; disulfide 2-7)	SS (SS indicates solubility ≥ 1mg/ml)	SS (SS indicates solubility ≥ 1mg/ml)	SS (SS indicates solubility ≥ 1mg/ml)	SS (SS indicates solubility ≥ 1mg/ml)	SS (SS indicates solubility ≥ 1mg/ml)	SS (SS indicates solubility ≥ 1mg/ml)	SS (SS indicates solubility ≥ 1mg/ml)	–	0.19 nM
